This is an account of results in patent publication US8758779B2, “Pharmaceutical composition of duloxetine” (Wockhardt Ltd., priority 2009, dated 2014).

A short description of data set [1]: Solubility studies (turbidity or clarity of the resultant solution). Format: physicochemical. To be noted: duloxetine present along with one or more cyclodextrin or derivatives, as physical admixture or complex. On the procedure: Weighed amount of duloxetine hydrochloride was dispersed in required quantity of water at room temperature. To the above dispersion sodium bicarbonate, propylene glycol, sodium lauryl sulphate or Hydroxypropyl Beta-cyclodextrin was added in requisite amount as specified in Table 5.

The conditions of data set [2]: water; cited from earlier work.
For data set [3] the following is noted: acidic environment of gastrointestinal tract; cited from earlier work.

For `CNCC[C@H](Oc1cccc2ccccc12)c1cccs1` [Duloxetine], in data set [1], the “Solubility of duloxetine in presence of cyclodextrin” value is reported as “significant increase in solubility”. The Aqueous solubility entry in data set [2] was “slightly soluble in water”. The Acid stability result in data set [3] is recorded as “acid labile”.
